Data: patent US20100003208A1, “Skin Care Products, As Well As Foods and Beverages Containing 6-O-PUFA Ascorbic Esters” (Suntory Holdings Limited, priority 2004, published 2010)

Assays:
[1] = molecular target: aldose reductase (Homo sapiens, UniProt P15121); settings: cited from earlier work
[2] = system: streptozotocin-induced diabetic model; settings: in vivo; cited from earlier work
[3] = system: human skin keratocytes HaCaT; test: Protective effect on apoptosis of HaCaT keratocytes under UVA irradiation (WST-1 viability); format: cell-based; settings: 200 μM added 2 hours before 32-48 mJ/cm^2 UVA; WST-1 24 hours after irradiation; FIG. 2
Protocol: Human skin keratocytes HaCaT (the cell line granted by courtesy of Dr. Fusenig at University of Heidelberg) were inoculated on a 24-well plate at a density of 10,000 cells/well in a 10% fetal bovine serum (FBS) containing Dulbecco modified Eagle medium (DMEM); 18 hours later, the medium was irradiated with 32-48 mJ/cm^2 of UVA. Two hours before the irradiation, 100-200 μM of 6-O-dihomo-γ-linolenoyl ascorbate had been added to the medium but it was removed just before the irradiation and the medium was rinsed. UVA irradiation was performed in PBS but in the absence of the drug; after the irradiation, culture was continued in the 10% FBS containing DMEM and 24 hours after the irradiation, the cell viability was evaluated by a mitochondrial dehydrogenase activity assay method using 2-(4-iodophenyl)-3-(4-nitrophenyl)-5-(2,4-disulfophenyl)-2H-tetrazolium monosodium salt (WST-1).

[4] = system: human skin strips; test: Permeability of ascorbic acid to the tissue of human skin strips (modified Bronov diffusion cell); format: in vitro ADME; settings: 100 mM (3.38% w/w; PBS(−)) on keratinized layer, re-dosed at 4 and 17 h, 24 hours; compared with unmodified vitamin C; FIG. 3
Protocol: A human skin section extracted from the right abdominal part of a volunteer with an informed consent was vertically split into small strips, which were set in a modified Bronov diffusion cell chamber. With the underside of the skin immersed in DMEM (2 mL) to supply nutrients, the keratinized layer was aerated with 5% CO2 to maintain the pH of the medium at 7.25. […] The total quantity of vitamin C (the sum of reduced and oxidized forms of vitamin C) and the quantity of reduced form of vitamin C in the epidermis and the dermis were measured; the total quantity of vitamin C was measured in the presence of 16 mM dithiothreitol as a reducing agent, whereas the quantity of reduced form of vitamin C was measured without adding any such reducing agent. The measured values were used to calculate the proportion of total vitamin C as occupied by reduced form of vitamin C. Similarly, 6-O-arachidonoyl ascorbate and 6-O-docosahexaenoyl ascorbate, as well as ascorbic acid (comparison) were evaluated and the results are also shown in FIG. 3.

Compound | aldose reductase inhibitory action [1] | efficacy in streptozotocin-induced diabetic model [2] | viability of human skin keratocytes [3] | amount of vitamin C in the dermis [4]
CCCCC/C=C\C/C=C\C/C=C\CCCCC(=O)OC[C@H](O)[C@H]1OC(=O)C(O)=C1O [6-O-γ-linolenoyl ascorbate] | aldose reductase inhibitory action | effective | – | –
CCCCC/C=C\C/C=C\C/C=C\CCCCCCC(=O)OC[C@H](O)[C@H]1OC(=O)C(O)=C1O [6-O-dihomo-γ-linolenoyl ascorbate] | – | – | improved the viability | increased markedly
CCCCC/C=C\C/C=C\C/C=C\C/C=C\CCCC(=O)OC[C@H](O)[C@H]1OC(=O)C(O)=C1O [6-O-arachidonoyl ascorbate] | – | – | – | increased markedly
